In the CheMixHub viscosity set:

Experiment: xn = mol fraction of the nth substance listed

CCCCOC(C)=O + CCCCCCCC
298.15 K, 101.3 kPa
Conditions | viscosity [mPa·s]
x1 = 0.0442 | 0.5144
x1 = 0.1275 | 0.5154
x1 = 0.2822 | 0.5241
x1 = 0.3556 | 0.5333
x1 = 0.4596 | 0.5465
x1 = 0.5629 | 0.5633
x1 = 0.6356 | 0.5776
x1 = 0.7305 | 0.5991
x1 = 0.8441 | 0.6298
x1 = 0.9724 | 0.6725

CCCOC(=O)c1ccccc1 + CCCCCCCC
101 kPa
Conditions | viscosity [mPa·s]
298.15 K, x2 = 0.0773 | 2.082
298.15 K, x2 = 0.1026 | 1.998
298.15 K, x2 = 0.1613 | 1.792
298.15 K, x2 = 0.2565 | 1.512
298.15 K, x2 = 0.3067 | 1.381
298.15 K, x2 = 0.3482 | 1.286
298.15 K, x2 = 0.3951 | 1.187
298.15 K, x2 = 0.4424 | 1.094
298.15 K, x2 = 0.4882 | 1.018
298.15 K, x2 = 0.5342 | 0.948
298.15 K, x2 = 0.5836 | 0.882
298.15 K, x2 = 0.6253 | 0.828
298.15 K, x2 = 0.6796 | 0.769
298.15 K, x2 = 0.727 | 0.723
298.15 K, x2 = 0.8351 | 0.633
298.15 K, x2 = 0.9429 | 0.558
308.15 K, x2 = 0.0816 | 1.645
308.15 K, x2 = 0.13 | 1.512
308.15 K, x2 = 0.1656 | 1.421
308.15 K, x2 = 0.2095 | 1.318
308.15 K, x2 = 0.2541 | 1.225
308.15 K, x2 = 0.2993 | 1.136
308.15 K, x2 = 0.3584 | 1.034
308.15 K, x2 = 0.3968 | 0.972
308.15 K, x2 = 0.4503 | 0.897
308.15 K, x2 = 0.4892 | 0.846
308.15 K, x2 = 0.5375 | 0.79
308.15 K, x2 = 0.5822 | 0.743
308.15 K, x2 = 0.6192 | 0.707
308.15 K, x2 = 0.6824 | 0.653
308.15 K, x2 = 0.7188 | 0.625
308.15 K, x2 = 0.7692 | 0.588
308.15 K, x2 = 0.8292 | 0.55
308.15 K, x2 = 0.8674 | 0.527
308.15 K, x2 = 0.9303 | 0.497
318.15 K, x2 = 0.0629 | 1.422
318.15 K, x2 = 0.09 | 1.361
318.15 K, x2 = 0.1362 | 1.261
318.15 K, x2 = 0.1878 | 1.163
318.15 K, x2 = 0.233 | 1.081
318.15 K, x2 = 0.2525 | 1.047
318.15 K, x2 = 0.33 | 0.926
318.15 K, x2 = 0.3813 | 0.856
318.15 K, x2 = 0.4267 | 0.801
318.15 K, x2 = 0.4776 | 0.744
318.15 K, x2 = 0.5373 | 0.686
318.15 K, x2 = 0.5751 | 0.653
318.15 K, x2 = 0.6208 | 0.616
318.15 K, x2 = 0.671 | 0.581
318.15 K, x2 = 0.7073 | 0.556
318.15 K, x2 = 0.7545 | 0.53
318.15 K, x2 = 0.8156 | 0.497
318.15 K, x2 = 0.8667 | 0.472
318.15 K, x2 = 0.9127 | 0.453

CCCCOC(C)=O + CCCCCCCCC
298.15 K, 101.3 kPa
Conditions | viscosity [mPa·s]
x1 = 0.0459 | 0.6602
x1 = 0.1339 | 0.6474
x1 = 0.2324 | 0.6291
x1 = 0.3814 | 0.6318
x1 = 0.4218 | 0.6304
x1 = 0.4836 | 0.6314
x1 = 0.5989 | 0.632
x1 = 0.658 | 0.6382
x1 = 0.7574 | 0.6466
x1 = 0.8386 | 0.6563
x1 = 0.9486 | 0.6723

CCCCCCCCCCCCCCCCCCCC + CCCCCCCCCC
viscosity [mPa·s], 101.3 kPa
Conditions | x2 = 0.201 | x2 = 0.4 | x2 = 0.5 | x2 = 0.6 | x2 = 0.8
293.15 K | – | – | – | – | 1.56
303.2 K | – | – | 2.4 | 2.01 | 1.31
313.2 K | 3.14 | 2.38 | 1.95 | 1.68 | 1.12

CCCCOC(C)=O + CCCCCCCCCC
298.15 K, 101.3 kPa
Conditions | viscosity [mPa·s]
x1 = 0.3547 | 0.7515
x1 = 0.4366 | 0.7352
x1 = 0.5375 | 0.7168
x1 = 0.6473 | 0.7018
x1 = 0.7119 | 0.6958
x1 = 0.8212 | 0.6854
x1 = 0.9331 | 0.6851
